Experimental data published in patent US20190185479A1, “BICYCLIC NITROGENATED HETEROCYCLIC COMPOUND” (MITSUBISHI TANABE PHARMA CORPORATION, priority 2016, published 2019).

Molecular target: T1, Human PDE7B (hPDE7B) (Homo sapiens, UniProt Q9NP56)
T1 construct: made in house; host or cells: COS-7 cells
Test: Measurement of PDE7 inhibitory activity (Experimental Example 1; residual cAMP, LANCE Ultra cAMP TR-FRET)
Format: biochemical
Conditions: cAMP 3 nmol/L, room temperature 60 minutes
Procedure, shortened: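 hPDE7B from transfected COS-7 cells reacted with 3 nmol/L cAMP (final) and compound (2% DMSO) in 50 mmol/L Tris-HCl pH 7.5, 1 mmol/L MgCl2, 0.1% BSA, 0.5 mmol/L DTT, 60 min at room temperature. Reaction stopped with IBMX; residual cAMP measured by TR-FRET. Inhibition scaled between no-compound and no-enzyme controls.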

T1 sequence (Q9NP56 whole entry): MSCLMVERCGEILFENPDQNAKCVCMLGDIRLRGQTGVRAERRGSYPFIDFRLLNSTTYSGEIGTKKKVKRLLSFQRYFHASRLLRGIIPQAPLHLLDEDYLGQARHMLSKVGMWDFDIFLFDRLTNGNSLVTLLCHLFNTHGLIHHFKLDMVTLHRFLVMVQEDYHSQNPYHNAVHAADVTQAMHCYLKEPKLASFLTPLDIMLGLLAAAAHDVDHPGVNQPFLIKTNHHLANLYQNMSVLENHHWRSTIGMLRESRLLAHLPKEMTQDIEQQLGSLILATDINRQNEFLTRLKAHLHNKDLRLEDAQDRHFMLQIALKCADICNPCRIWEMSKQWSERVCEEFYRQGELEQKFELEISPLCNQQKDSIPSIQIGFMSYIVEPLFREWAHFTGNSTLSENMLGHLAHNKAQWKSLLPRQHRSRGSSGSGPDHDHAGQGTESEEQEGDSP

Nc1ncnc2c1nnn2C1CCCCC1 [Example 3, 3-cyclohexyl-3H-[1,2,3]triazolo[4,5-d]pyrimidin-7-amine]
IC50: 50 nM

Cc1nc(N)c2nnn(C3CCCCC3)c2n1 [Example 4]
IC50: 50 nM

CC1CCCCC1n1nnc2c(N)ncnc21 (single isomer, unassigned) [Example 191, 3-(cis-2-methylcyclohexyl)-3H-[1,2,3]triazolo[4,5-d]pyrimidin-7-amine]
IC50: < 10 nM

Nc1nccn2c(C3CCCCC3)nnc12 [Example 141, 3-cyclohexyl[1,2,4]triazolo[4,3-a]pyrazin-8-amine]
IC50: 10 nM

C[C@@H]1CCC[C@H](c2nnc3c(N)nccn23)C1 [Example 204, 3-[(1S,3R)-3-methylcyclohexyl][1,2,4]triazolo[4,3-a]pyrazin-8-amine]
IC50: < 10 nM
